# System: six V600E BRAF melanoma cell lines
# Assay: Screening of recombinant RTK ligands for ability to confer resistance to BRAFi (PLX4720) or MEKi (PD184352) (Table 4)
# Format: cell-based, human
# Parameters: ability of recombinant RTK ligand to confer resistance / ability of recombinant RTK ligand to confer resistance (screening value): scale not given here
# Description: HGF is the only one that can substantially confer drug resistance to the cell lines.
# The complexity of the tumor microenvironment is much greater than an in vitro co-culture system. Therefore, the inventors explored whether the activation of other RTKs could result in a similar resistance as that observed with the activation of MET. To this end, six V600E BRAF melanoma cell lines were tested for their resistance to either BRAFi (PLX4720) or MEKi (PD184352) after the addition of 22 RTK ligands that have the potential of activating almost all known RTKs. […] The activation of a selected subset of these RTKs was confirmed by western blotting and by high throughput tyrosine kinase phosphorylation profiling.
substance,measurement,setting,value
NT3,ability of recombinant RTK ligand to confer resistance,"A2058, PD184352 - 1 uM, ligand 0.4 ng/ml",1.04
same,ability of recombinant RTK ligand to confer resistance,"A2058, PD184352 - 1 uM, ligand 1.6 ng/ml",1.13
same,ability of recombinant RTK ligand to confer resistance,"A2058, PD184352 - 1 uM, ligand 6.25 ng/ml",1.08
same,ability of recombinant RTK ligand to confer resistance,"A2058, PD184352 - 1 uM, ligand 25 ng/ml",1.01
same,ability of recombinant RTK ligand to confer resistance,"A2058, PD184352 - 1 uM, ligand 100 ng/ml",0.90
same,ability of recombinant RTK ligand to confer resistance,"A2058, PLX4720 - 2 uM, ligand 0.4 ng/ml",1.02
same,ability of recombinant RTK ligand to confer resistance,"A2058, PLX4720 - 2 uM, ligand 1.6 ng/ml",1.16
same,ability of recombinant RTK ligand to confer resistance,"A2058, PLX4720 - 2 uM, ligand 6.25 ng/ml",1.09
same,ability of recombinant RTK ligand to confer resistance,"A2058, PLX4720 - 2 uM, ligand 25 ng/ml",1.02
same,ability of recombinant RTK ligand to confer resistance,"A2058, PLX4720 - 2 uM, ligand 100 ng/ml",0.93
same,ability of recombinant RTK ligand to confer resistance,"C32, PD184352 - 1 uM, ligand 0.4 ng/ml",0.98
same,ability of recombinant RTK ligand to confer resistance,"C32, PD184352 - 1 uM, ligand 1.6 ng/ml",1.02
same,ability of recombinant RTK ligand to confer resistance,"C32, PD184352 - 1 uM, ligand 6.25 ng/ml",0.93
same,ability of recombinant RTK ligand to confer resistance,"C32, PD184352 - 1 uM, ligand 25 ng/ml",0.95
same,ability of recombinant RTK ligand to confer resistance,"C32, PD184352 - 1 uM, ligand 100 ng/ml",0.88
same,ability of recombinant RTK ligand to confer resistance,"C32, PLX4720 - 2 uM, ligand 0.4 ng/ml",1.00
same,ability of recombinant RTK ligand to confer resistance,"C32, PLX4720 - 2 uM, ligand 1.6 ng/ml",1.03
same,ability of recombinant RTK ligand to confer resistance,"C32, PLX4720 - 2 uM, ligand 6.25 ng/ml",0.91
same,ability of recombinant RTK ligand to confer resistance,"C32, PLX4720 - 2 uM, ligand 25 ng/ml",1.00
same,ability of recombinant RTK ligand to confer resistance,"C32, PLX4720 - 2 uM, ligand 100 ng/ml",0.95
same,ability of recombinant RTK ligand to confer resistance,"Colo 829, PD184352 - 1 uM, ligand 0.4 ng/ml",1.07
same,ability of recombinant RTK ligand to confer resistance,"Colo 829, PD184352 - 1 uM, ligand 1.6 ng/ml",1.16
same,ability of recombinant RTK ligand to confer resistance,"Colo 829, PD184352 - 1 uM, ligand 6.25 ng/ml",1.02
same,ability of recombinant RTK ligand to confer resistance,"Colo 829, PD184352 - 1 uM, ligand 25 ng/ml",1.07
same,ability of recombinant RTK ligand to confer resistance,"Colo 829, PD184352 - 1 uM, ligand 100 ng/ml",1.03
same,ability of recombinant RTK ligand to confer resistance,"Colo 829, PLX4720 - 2 uM, ligand 0.4 ng/ml",1.03
same,ability of recombinant RTK ligand to confer resistance,"Colo 829, PLX4720 - 2 uM, ligand 1.6 ng/ml",1.15
same,ability of recombinant RTK ligand to confer resistance,"Colo 829, PLX4720 - 2 uM, ligand 6.25 ng/ml",1.00
same,ability of recombinant RTK ligand to confer resistance,"Colo 829, PLX4720 - 2 uM, ligand 25 ng/ml",1.09
same,ability of recombinant RTK ligand to confer resistance,"Colo 829, PLX4720 - 2 uM, ligand 100 ng/ml",1.04
same,ability of recombinant RTK ligand to confer resistance,"G-361, PD184352 - 1 uM, ligand 0.4 ng/ml",0.98
same,ability of recombinant RTK ligand to confer resistance,"G-361, PD184352 - 1 uM, ligand 1.6 ng/ml",0.98
same,ability of recombinant RTK ligand to confer resistance,"G-361, PD184352 - 1 uM, ligand 6.25 ng/ml",1.01
same,ability of recombinant RTK ligand to confer resistance,"G-361, PD184352 - 1 uM, ligand 25 ng/ml",1.05
same,ability of recombinant RTK ligand to confer resistance,"G-361, PD184352 - 1 uM, ligand 100 ng/ml",0.88
same,ability of recombinant RTK ligand to confer resistance,"G-361, PLX4720 - 2 uM, ligand 0.4 ng/ml",0.95
same,ability of recombinant RTK ligand to confer resistance,"G-361, PLX4720 - 2 uM, ligand 1.6 ng/ml",0.98
same,ability of recombinant RTK ligand to confer resistance,"G-361, PLX4720 - 2 uM, ligand 6.25 ng/ml",1.00
same,ability of recombinant RTK ligand to confer resistance,"G-361, PLX4720 - 2 uM, ligand 25 ng/ml",0.98
same,ability of recombinant RTK ligand to confer resistance,"G-361, PLX4720 - 2 uM, ligand 100 ng/ml",0.84
same,ability of recombinant RTK ligand to confer resistance,"SK-MEL-5, PD184352 - 1 uM, ligand 0.4 ng/ml",1.02
same,ability of recombinant RTK ligand to confer resistance,"SK-MEL-5, PD184352 - 1 uM, ligand 1.6 ng/ml",1.08
same,ability of recombinant RTK ligand to confer resistance,"SK-MEL-5, PD184352 - 1 uM, ligand 6.25 ng/ml",1.00
same,ability of recombinant RTK ligand to confer resistance,"SK-MEL-5, PD184352 - 1 uM, ligand 25 ng/ml",0.94
same,ability of recombinant RTK ligand to confer resistance,"SK-MEL-5, PD184352 - 1 uM, ligand 100 ng/ml",1.04
same,ability of recombinant RTK ligand to confer resistance,"SK-MEL-5, PLX4720 - 2 uM, ligand 0.4 ng/ml",0.99
same,ability of recombinant RTK ligand to confer resistance,"SK-MEL-5, PLX4720 - 2 uM, ligand 1.6 ng/ml",1.02
same,ability of recombinant RTK ligand to confer resistance,"SK-MEL-5, PLX4720 - 2 uM, ligand 6.25 ng/ml",0.93
same,ability of recombinant RTK ligand to confer resistance,"SK-MEL-5, PLX4720 - 2 uM, ligand 25 ng/ml",0.98
same,ability of recombinant RTK ligand to confer resistance,"SK-MEL-5, PLX4720 - 2 uM, ligand 100 ng/ml",1.09
same,ability of recombinant RTK ligand to confer resistance,"SK-MEL-28, PD184352 - 1 uM, ligand 0.4 ng/ml",1.02
same,ability of recombinant RTK ligand to confer resistance,"SK-MEL-28, PD184352 - 1 uM, ligand 1.6 ng/ml",0.97
same,ability of recombinant RTK ligand to confer resistance,"SK-MEL-28, PD184352 - 1 uM, ligand 6.25 ng/ml",0.99
same,ability of recombinant RTK ligand to confer resistance,"SK-MEL-28, PD184352 - 1 uM, ligand 25 ng/ml",1.15
same,ability of recombinant RTK ligand to confer resistance,"SK-MEL-28, PD184352 - 1 uM, ligand 100 ng/ml",0.96
same,ability of recombinant RTK ligand to confer resistance,"SK-MEL-28, PLX4720 - 2 uM, ligand 0.4 ng/ml",0.95
same,ability of recombinant RTK ligand to confer resistance,"SK-MEL-28, PLX4720 - 2 uM, ligand 1.6 ng/ml",1.05
same,ability of recombinant RTK ligand to confer resistance,"SK-MEL-28, PLX4720 - 2 uM, ligand 6.25 ng/ml",0.89
same,ability of recombinant RTK ligand to confer resistance,"SK-MEL-28, PLX4720 - 2 uM, ligand 25 ng/ml",1.14
same,ability of recombinant RTK ligand to confer resistance,"SK-MEL-28, PLX4720 - 2 uM, ligand 100 ng/ml",0.94
